Assay results from patent US20060094059A1, “Methods for identifying new drug leads and new therapeutic uses for known drugs” (Odyssey Thera, Inc., priority 2004, published 2006).
Like-named read-outs stand apart in the source and are kept apart here.

How the values were obtained:
[1] = system: glioblastoma (U-87 MG) cells; assay: MTT proliferation assay, glioblastoma; assay type: cell-based; conditions: Homo sapiens, Tumor Cell Glioblastoma (U-87 MG), 120 hours, read-out: Anti-proliferative IC-50
Method: (§1) Cells were maintained in various media as follows: A549, LoVo and PC-3 (Ham's F12K medium with 2 mM L-glutamine and 1.5 g/L sodium bicarbonate), MIA PaCa-2 (Dulbecco's modified Eagle's medium with 4 mM L-glutamine and 4.5 g/L glucose), U87-MG (MEM+Earle's BSS). Medium for each cell line was supplemented with 10% FBS and […] Penecillin/Streptomycin. All cells were grown in incubators set at 37° C., 5% CO2. Thiazolyl Blue Tetrazolium Bromide (MTT) based proliferation assays were performed to assess the anti-proliferative activities of the compounds on these cells. Cells were seeded in 96 well plates at a density of 750 cells/well 24 hours prior to compound treatment. The cells were incubated with varying concentrations of compounds for 120 hours. […] Drug treatment was performed in 5 replicate wells. Background absorbance was established by wells containing medium but no cells. Vehicle (DMSO) only was used as control. MTT (Sigma-Aldrich, St. Louis, Mo.) was added to each well at a final concentration of 0.5 mg/ml. Following a 2 hour incubation at 37° C., medium in the wells was replaced with 0.15 ml DMSO. The plates were agitated for 15 min using a microtiter plate shaker.

PAK4:Cofilin = assay: Protein-fragment complementation assay PAK4:Cofilin; assay type: cell-based, human; conditions: hit in PAK4/CFL assay; drugs screened at 10 micromolar
Excerpt: (§2) To construct dynamic assays for protein-protein complexes, we used a protein-fragment complementation assay strategy (PCAs) in intact human cells. (A variety of other suitable assays, and reporter options, are described in detail below.) The principle of PCA is that complementary polypeptide fragments (F[1] and F[2]) of a reporter protein or enzyme will fold into an active form only if fused to two proteins which interact and bring the complementary fragments of the reporter protein into proximity. Reconstitution of the fragments of the reporter protein generates a fluorescent signal that can be quantified in intact cells, and the amount of the signal is proportional to the amount of the protein-protein complex used in constructing the assay. Given a suitable reporter type, the subcellular location of the complex can also be measured.
(§3) Reporter fragments for PCA were generated by oligonucleotide synthesis (Blue Heron Biotechnology, Bothell, Wash.), starting with the sequence of yellow fluorescent protein (YFP). First, oligonucleotides coding for polypeptide fragments YFP[1]and YFP[2] […] Next, PCR mutagenesis was used to generate the mutant fragments IFP[1] and IFP[2]. The IFP[1] fragment corresponds to YFP[1]-(F46L, F64L, M153T) and the IFP[2] fragment corresponds to YFP[2]-(V163A, S175G). […] The YFP[1], YFP[2], IFP[1] and IFP[2] fragments were amplified by PCR to incorporate restriction sites and a linker sequence, described below, in configurations that would allow fusion of a gene of interest to either the 5′- or 3′-end of each reporter fragment. The reporter-linker fragment cassettes were subcloned into a mammalian expression vector (pcDNA3.1Z, Invitrogen) that had been modified to incorporate the replication origin (oriP) of the Epstein Barr virus (EBV). […] Additionally, these vectors still retain the SV40 origin, allowing for episomal expression in cell lines expressing the SV40 large T antigen (e.g. HEK293T, Jurkat or COS).
(§4) PCA fusion constructs were prepared for a proteins known to participate in cellular pathways that have been described in the scientific literature as being linked to cancer. The selection of protein-protein complexes used, and the rationale for their use, is provided in Table 1 and the gene identifiers for the cDNAs used in assay construction are provided in Table 2. The full coding sequence for each gene of interest was amplified by PCR from a sequence-verified full-length cDNA. Resulting PCR products were column purified (Centricon), digested with appropriate restriction enzymes to allow directional cloning, and fused in-frame to either the 5′ or 3′-end of YFP[1], YFP[2], IFP[1] or IFP[2] through a linker encoding a flexible 10 amino acid peptide (Gly.Gly.Gly.Gly.Ser)2. […] Recombinants in the host strains DH5-alpha (Invitrogen, Carlsbad, Calif.) or XL1 Blue MR (Stratagene, La Jolla, Calif.) were screened by colony PCR, and clones containing inserts of the correct size were subjected to end sequencing to confirm the presence of the gene of interest and in-frame fusion to the appropriate reporter fragment. A subset of fusion constructs were selected for full-insert sequencing by primer walking. DNAs were isolated using Qiagen MaxiPrep kits (Qiagen, Chatsworth, Calif.). PCR was used to assess the integrity of each fusion construct, by combining the appropriate gene-specific primer with a reporter-specific primer to confirm that the correct gene-fusion was present and of the correct size with no internal deletions.
(§5) HEK293 cells were maintained in MEM alpha medium (Invitrogen) supplemented with 10% FBS (Gemini Bio-Products), 1% penicillin, and 1% streptomycin, and grown in a 37° C. incubator equilibrated to 5% CO2. […] Up to 100 ng of the complementary YFP or IFP-fragment fusion vectors were co-transfected using Fugene 6 (Roche) according to the manufacturer's protocol.

Cofilin:LIMK2 = assay: Protein-fragment complementation assay Cofilin:LIMK2; assay type: cell-based, human; conditions: hit in Cofilin/LIMK2 assay; drugs screened at 10 micromolar
Excerpt: as §2
(§6) Reporter fragments for PCA were generated by oligonucleotide synthesis (Blue Heron Biotechnology, Bothell, Wash.), starting with the sequence of yellow fluorescent protein (YFP). First, oligonucleotides coding for polypeptide fragments YFP[1]and YFP[2] […] Next, PCR mutagenesis was used to generate the mutant fragments IFP[1] and IFP[2]. The IFP[1] fragment corresponds to YFP[1]-(F46L, F64L, M153T) and the IFP[2] fragment corresponds to YFP[2]-(V163A, S175G). […]

human tumor cell lines = assay: MTT proliferation assay and phase contrast images, cell line not given (FIGS. 5-10); assay type: cell-based; conditions: treated cells vs. DMSO control, cell line not named
Method: (§7) We used these methods to mine the known pharmacopeia for drugs with previously-unsuspected activity against cancer-related pathways. […] Hits from our cell-based screens were tested for antiproliferative activity in up to 5 different human tumor cell lines, as follows. First, drugs with significant activity in the cellular screen(s) were tested for their ability to block proliferation of a human tumor cell line (PC-3) at an initial concentration of 10 micromolar. For drugs with antiproliferative activity in PC-3 cells, dose-response curves to determine the IC50 for antiproliferative activity and additional tumor cell lines were tested to determine the breadth of activity. Methods for assessing the antiproliferative activity of the cell-based drug ‘hits’ are described below.
Cells were maintained in various media as follows: A549, LoVo and PC-3 (Ham's F12K medium with 2 mM L-glutamine and 1.5 g/L sodium bicarbonate), MIA PaCa-2 (Dulbecco's modified Eagle's medium with 4 mM L-glutamine and 4.5 g/L glucose), U87-MG (MEM+Earle's BSS). Medium for each cell line was supplemented with 10% FBS and […] Penecillin/Streptomycin. All cells were grown in incubators set at 37° C., 5% CO2. Thiazolyl Blue Tetrazolium Bromide (MTT) based proliferation assays were performed to assess the anti-proliferative activities of the compounds on these cells. Cells were seeded in 96 well plates at a density of 750 cells/well 24 hours prior to compound treatment. The cells were incubated with varying concentrations of compounds for 120 hours. Compound concentrations range from 0.03 to 100 microM (half log increments) except for alpha-Tomatine (0.001-100 microM, half log increments), Neriifolin (0.0002-100 microM) and Peruvoside (0.01-100 microM). Drug treatment was performed in 5 replicate wells. Background absorbance was established by wells containing medium but no cells. Vehicle (DMSO) only was used as control. MTT (Sigma-Aldrich, St. Louis, Mo.) was added to each well at a final concentration of 0.5 mg/ml. Following a 2 hour incubation at 37° C., medium in the wells was replaced with 0.15 ml DMSO. The plates were agitated for 15 min using a microtiter plate shaker. […] Mean absorbance values were calculated from 5 replicate wells of each drug treatment following subtraction of background absorbance from blank samples and plotted as a percentage of control.

[2] = system: non-small cell lung carcinoma (A549) cells; assay: MTT proliferation assay, NSCLC; assay type: cell-based, Human; conditions: Tumor Cell NSCLC (A549), 120 hours, read-out: Anti-proliferative IC-50
Method: as §1

[3] = system: colon adenocarcinoma (LoVo) cells; assay: MTT proliferation assay, colon; assay type: cell-based, Human; conditions: Tumor Cell Colon (LoVo), 120 hours, read-out: Anti-proliferative IC-50
Method: as §1

[4] = system: pancreatic carcinoma (MIA PaCa-2) cells; assay: MTT proliferation assay, pancreatic; assay type: cell-based, Human; conditions: Tumor Cell Pancreatic (MIA PaCa-2), 120 hours, read-out: Anti-proliferative IC-50
Method: as §1

[5] = system: prostate adenocarcinoma (PC-3) cells; assay: MTT proliferation assay, prostate; assay type: cell-based, Human; conditions: Tumor Cell Prostate (PC-3), MTT, 120 hours, read-out: Anti-proliferative IC-50
Method: as §7, §1

CDC42:PAK4 complexes = assay: Protein-fragment complementation assay CDC42:PAK4; assay type: cell-based, human; conditions: for Assay activity: hit in CDC42/PAK4 assay, drugs screened at 10 micromolar
Excerpt: as §2, §3, §4, §5

HSP90:Eef2k = assay: Protein-fragment complementation assay Hsp90:Eef2k; assay type: cell-based, human; conditions: hit in HSP90/Eef2k assay; drugs screened at 10 micromolar
Excerpt: as §2
as §3, with “COS). […]” for “COS).”

MAX:MYC = assay: Protein-fragment complementation assay MAX:MYC; assay type: cell-based, human; conditions: hit in MYC/MAX assay; drugs screened at 10 micromolar
Excerpt: as §2, §6

EGFR:Grb2 = assay: Cell-based assay EGFR:Grb2; set-up: species or system human; conditions: hit in EGFR/Grb2 assay; drugs screened at 10 micromolar
Excerpt: as §2, §6

BAD:BID = assay: Protein-fragment complementation assay BAD:BID; assay type: cell-based, human; conditions: hit in BAD/BID assay; drugs screened at 10 micromolar
Excerpt: as §2, §6

CDC25C:Cdc2 = assay: Protein-fragment complementation assay CDC25C:Cdc2; assay type: cell-based, human; conditions: hit in CDC2/CDC25C assay; drugs screened at 10 micromolar
Excerpt: as §2, §6

Chk1:CDC25C = assay: Protein-fragment complementation assay Chk1:CDC25C; assay type: cell-based, human; conditions: hit in CDC25C/Chk1 assay (with or without CPT not stated); drugs screened at 10 micromolar
Excerpt: as §2, §6

Structure (SMILES) | IC50 [1] | Assay activity (PAK4:Cofilin) | cell count (phase contrast images) (human tumor cell lines) | IC50 ([2]; Homo sapiens) | IC50 ([3]; Homo sapiens) | IC50 ([4]; Homo sapiens) | IC50 ([5]; Homo sapiens) | Assay activity (CDC42:PAK4 complexes) | further results
CC(C)c1c(C(=O)Nc2ccccc2)c(-c2ccccc2)c(-c2ccc(F)cc2)n1CC[C@@H](O)C[C@@H](O)CC(=O)O [Atorvastatin] | 4600 nM | CFL1/PAK4 | decreased the cell count | – | – | – | – | – | Assay activity (Cofilin:LIMK2): CFL1/LIMK2,
O=C(CCCN1CC=C(n2c(=O)[nH]c3ccccc32)CC1)c1ccc(F)cc1 [Droperidol] | 24600 nM | PAK4/CFL | – | 24300 nM | 25800 nM | 8800 nM | 7680 nM | – | –
Fc1ccc(C(c2ccc(F)cc2)N2CCN(C/C=C/c3ccccc3)CC2)cc1 [Flunarizine] | – | PAK4/CFL, | – | – | – | – | – | CDC42/PAK4 | –
COC(=O)Nc1nc2ccc(C(=O)c3ccccc3)cc2[nH]1 [Mebendazole] | – | PAK4/CFL | – | 180 nM | 70 nM | 130 nM | 270 nM | – | –
CO[C@H]1[C@H](O)[C@H](O[C@H]2CC[C@@]3(C)[C@H](CC[C@@H]4[C@@H]3CC[C@]3(C)[C@@H](C5=CC(=O)OC5)CC[C@]43O)C2)O[C@@H](C)[C@@H]1O [Neri$$olin, Neriifolin] | – | PAK4/CFL, | – | – | – | – | – | CDC42/PAK4 | IC50 [2]: 5 nM; IC50 [3]: 18 nM; IC50 [4]: 4 nM; IC50 [5]: 11 nM
CN[C@H]1CC[C@@H](c2ccc(Cl)c(Cl)c2)c2ccccc21 [Sertraline] | – | – | reduced the cell count | – | – | – | – | – | Assay activity (HSP90:Eef2k): Eef2K/hsp90,; Assay activity (MAX:MYC): MAX/MYC; Assay activity (EGFR:Grb2): EGFR/Grb2,; Assay activity (BAD:BID): BAD/BID,; Assay activity (CDC25C:Cdc2): CDC2/CDC25C,
CCCCCCCCNC(C)C(O)c1ccc(SC(C)C)cc1 (centres unmarked) [Suloctidil] | 1120 nM | PAK4/CFL, | – | 2230 nM | 1130 nM | 1930 nM | 1850 nM | CDC42/PAK4 | –
CC(C)(C)c1ccc(C(O)CCCN2CCC(C(O)(c3ccccc3)c3ccccc3)CC2)cc1 (centres unmarked) [Terfenadine] | 380 nM | – | reduced the cell count | 550 nM | 990 nM | 350 nM | – | CDC42/PAK4 | level of CDC42:PAK4 complexes (intensity of the fluorescence) (CDC42:PAK4 complexes; FIG. 3F, compared with the vehicle alone): decrease in the level
CC1(C)CCC2=C(O1)c1ccccc1C(=O)C2=O [beta-Lapachone] | 860 nM | – | – | 230 nM | 1400 nM | 377 nM | 630 nM | – | Assay activity (EGFR:Grb2): EGFR/Grb2,; Assay activity (Chk1:CDC25C): CDC25C/Chk1
